According to PubChem BioAssay AID179 (DTP/NCI, 2004):
Where “and” joins values, the source holds several entries; their conditions need not be identical. Identical values can stand only once. Calls of active or inactive are those of the source.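 The calls were made as follows: active = compounds giving half or more protection of infected cells from virus-caused growth loss, again on retest; inactive = the rest.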

System: CEM cells HIV-1 protection, formazan growth assay
Experiment: NCI AIDS Antiviral Assay
Conditions: for IC50: measured here: growth of uninfected CEM cells
In short: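 Category rules: moderately active means at least 50% protection on retest, and confirmed active means 100% protection reproducibly. The underlying data came from a formazan growth assay in HIV-1-infected CEM cells.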

O=C1Nc2ncnn2C1=O
EC50: > 52.5 µM | IC50: > 52.5 µM

CC12Nc3ccccc3N1C(=O)c1ccccc12 (configuration not stated)
EC50: > 200 µM | IC50: 107 µM

Cc1ccc(-c2c(C#N)c(S)n(NS(=O)(=O)c3ccc(C)cc3)c(=O)c2C#N)cc1
EC50: > 200 µM | IC50: 11.7 µM

O=[N+]([O-])c1ccccc1S(=O)(=O)c1cc(Cl)cc2c1NCCC2
EC50: > 151 µM | IC50: 28.8 µM

S=C1C=C(c2ccccc2)Sc2ccccc2N1
EC50: > 200 µM | IC50: 60.3 µM

CC(C)CCC[C@@H](C)[C@H]1CC[C@H]2[C@@H]3CC[C@H]4C[C@@H](CC/C=C(/c5ccc(OCc6ccccc6B(O)O)c(C(=O)O)c5)c5cc(Cl)c(OCc6ccccc6B(O)O)c(C(=O)O)c5)CC[C@]4(C)[C@H]3CC[C@]12C
EC50: > 200 µM | IC50: > 200 µM

CCOC(=O)C(CC1COc2ccccc2O1)C(=O)OCC (configuration not stated)
outcome: inactive

CCn1c2c(c3ccccc31)C(c1ccccc1)CC1C(=O)N(c3ccccc3)C(=O)C21 (configuration not stated)
EC50: > 11.7 µM | IC50: > 11.7 µM

Cc1ccccc1C1(O)c2ccccc2Oc2ccccc21
EC50: > 200 µM | IC50: 13.8 µM

Cc1cn(C2CC(O[Si](C)(C)C(C)(C)C)C(/C=N\O)O2)c(=O)[nH]c1=O (configuration not stated)
EC50: > 200 µM | IC50: > 200 µM

CCOC(=O)c1c(N)sc2c1C(C)(C(=O)OCC)CC2 (configuration not stated)
EC50: > 200 µM | IC50: 141 µM

COC(=O)C(=O)C(C(=O)C(=O)Nc1ccc([N+](=O)[O-])cc1[N+](=O)[O-])c1nc2ccc([N+](=O)[O-])cc2[nH]c1=O (configuration not stated)
EC50: > 468 µM | IC50: 141 µM

CCCCCCCC1(N=[N+]=[N-])C(=O)c2ccccc2N(C)C1=O (configuration not stated)
EC50: 21.9 µM | IC50: 110 µM

Cn1c2c(c3ccccc31)CCN(CCN1CCN(c3cccc(Cl)c3)CC1)C2=O
EC50: > 8.51 µM | IC50: > 8.51 µM

Cc1[nH]c(=O)nc2nc3cc(Cl)cc(Cl)c3c(NC(C)(CO)CO)c12
EC50: > 200 µM | IC50: > 200 µM

Cc1ccc(S(=O)(=O)N2CCC(C(=O)O)(c3ccccc3)CC2)cc1
EC50: > 182 µM | IC50: > 182 µM

N#Cc1nc(-c2ccc(-c3nc(C#N)c(N)o3)cc2)oc1N
EC50: > 200 µM | IC50: > 200 µM

O=c1c(=[n+]2ccc(=C([O-])c3ccccc3)cc2)/c(=N/S(=O)(=O)c2ccccc2)c(=O)c2ccccc12
EC50: > 200 µM | IC50: 6.17 µM

Cc1n(Cc2ccccc2)c2c([n+]1C)C(=O)c1ccccc1C2=O
EC50: > 562 µM | IC50: 0.178 µM

CCN(CC)CCOc1ccc(/C(C#N)=C/c2ccc(SC(C)C)cc2)cc1
EC50: > 100 µM | IC50: 1.41 µM

CCOC(CC1(O)C(=O)N(Cc2ccccc2)c2ccccc21)OCC (configuration not stated)
EC50: > 200 µM | IC50: > 200 µM

NC(N)=C1CN(C2CCCCC2)C(=O)NC1=O
EC50: > 1050 µM | IC50: 794 µM

CC(=O)OC1(C(C)=O)CC2(c3ccccc3)OC1(c1ccccc1)c1ccccc12 (configuration not stated)
outcome: inactive

O=C1CN2C(Cl)(Cl)C2(c2ccccc2)c2cc(Cl)ccc2N1CC1CC1 (configuration not stated)
EC50: > 200 µM | IC50: 11.7 µM

CC(=O)NC1=C(C)C(=O)c2c(nc3n2CCC3OC(=O)c2ccccc2)C1=O (configuration not stated)
EC50: > 200 µM | IC50: 0.977 µM

N=C(N)C1CN(CCc2cnc[nH]2)C(=O)NC1=O (configuration not stated)
EC50: > 200 µM | IC50: > 200 µM

C/C=C(\C)C(=O)OCC12C(OC(C)=O)CC(C)C(C)(CCC3=CC(=O)OC3)[C@H]1CCCC21CO1 (some centres not stated)
EC50: > 75.9 µM | IC50: > 75.9 µM

O=C1C(c2c[nH]c3ccccc23)=Nc2ccc(Br)cc21
EC50: > 20 µM | IC50: 5.89 µM

O=[N+]([O-])c1ccc(/C(Cl)=C/c2ccc(/C=C(\Cl)c3ccc([N+](=O)[O-])cc3[N+](=O)[O-])cc2)c([N+](=O)[O-])c1
EC50: > 1.41 µM | IC50: > 1.41 µM

NC(=O)c1c(N)ncn1C1OC(CO)C(F)C1O (configuration not stated)
EC50: > 200 µM | IC50: > 200 µM

[O-]/[N+]1=[N+](\[O-])c2ccccc2CCCc2ccccc21
EC50: > 269 µM | IC50: > 269 µM

Cc1cccc(C2=C/C(=C(\SS/C(C(=O)c3ccc(OCC(=O)O)c(Cl)c3Cl)=C3\C=C(c4cccc(C)c4)SS3)C(=O)c3ccc(OCC(=O)O)c(Cl)c3Cl)SS2)c1
outcome: inactive

COc1ccc(NCc2cc(OC)c(OC)c(OC)c2)cc1
EC50: > 2 µM | IC50: 0.214 µM and 0.316 µM

Cc1cc(=O)[nH]c(NN2C(Cl)C(=O)C2c2cccc(O)c2)n1 (configuration not stated)
EC50: > 295 µM | IC50: 1.86 µM

C=C1C(=O)OC2/C=C(\C)C3OC3/C=C(/C(=O)OC)C(O)C(OC(=O)C3(C)OC3C)C12 (configuration not stated)
EC50: > 120 µM | IC50: 0.302 µM

Nc1ccc2c(c1)nc1n2C(c2c(F)cccc2F)SC1 (configuration not stated)
EC50: > 200 µM | IC50: 135 µM

O=c1cc2c(=O)oc3cc(O)c(O)oc3c2c(O)c1O
EC50: > 324 µM | IC50: 13.8 µM

CC(=O)OC1OC(C2c3cccc(O)c3C(=O)c3c(O)cc(CO)cc32)C(O)C(O)C1O (configuration not stated)
EC50: > 200 µM | IC50: 4.07 µM and 4.17 µM

Cc1ccccc1NC(=O)Cc1csc(N/N=C2\NC(=O)/C(=C/c3cccc([N+](=O)[O-])c3)S2)n1
EC50: > 200 µM | IC50: > 100 µM

C/C(=N/OC(=O)N(C)C)c1ccc(Cl)cc1Cl
EC50: > 200 µM | IC50: 105 µM

Cc1cc(C)c(C)c(-n2[nH]c(=O)n(C)c2=O)c1C
EC50: > 200 µM | IC50: > 200 µM

CN(N=O)C(=O)N[C@@H](C=O)[C@@H](O)[C@H](O)[C@H](O)CO
EC50: > 933 µM | IC50: > 933 µM

O=C(C#CP(=O)(O)c1ccccc1)c1ccccc1
EC50: > 200 µM | IC50: > 200 µM

C[Si](C)(C)/C(Br)=C\CCN1C(=O)CCC1=O
outcome: inactive

CCOC(=O)C(=[N+]=[N-])C(=O)CN1C(=O)C2CC(C)=C(C)CC2C1O (configuration not stated)
EC50: > 389 µM | IC50: > 389 µM

CCCC1C(CC)C(NC)C(C#N)(C#N)C1(C#N)C#N (configuration not stated)
EC50: > 200 µM | IC50: 10.2 µM

CC(C)=CC(=O)Cc1nc2cc(C)c(C)cc2[nH]c1=O
outcome: inactive

Cc1nc(Nc2ccccc2)sc1C(=O)CC(=O)C(=O)Nc1c(C(C)C)cccc1C(C)C
EC50: > 77.6 µM | IC50: > 77.6 µM

O=C1CCc2cc3c(cc21)C(C(=O)O)CC3 (configuration not stated)
EC50: > 200 µM | IC50: > 200 µM

CC(Nc1n[nH]c(=O)c2c1nnn2Cc1ccccc1)c1ccccc1 (configuration not stated)
EC50: 55 µM and 126 µM | IC50: 97.7 µM and 447 µM

COC12C=CC(CC1)C1=C2C(=O)c2nc(C)c(C)nc2C1=O (configuration not stated)
EC50: > 63.1 µM | IC50: 39.8 µM

CCOC(=O)c1c(NC(=S)Nc2ccccc2)sc2c1CCN(C)C2
EC50: > 200 µM | IC50: > 200 µM

CSc1nc2c(=O)oc(-c3ccc(Cl)cc3)nc2s1
EC50: > 200 µM | IC50: 110 µM

Cc1cc(Cl)ccc1NC(=O)C1C(=O)C(=O)N(c2ccc(Cl)cc2C)C1=O (configuration not stated)
outcome: inactive

O=C1C2C3C=C4c5ccccc5N(c5ccccc5)C4(C2C(=O)N1c1ccc(Br)cc1)[C@H]1C(=O)N(c2ccc(Br)cc2)C(=O)[C@@H]31 (some centres not stated)
EC50: > 5.25 µM | IC50: > 5.25 µM

CN1C(=O)c2ccccc2NC(=O)c2cnn(C)c21
outcome: inactive

CCN(CC)c1ccc2c(c1)N=C1N=CC=CN1C2(c1ccc(N(C)C)cc1)c1ccc(N(C)C)cc1
outcome: inactive

C=C(Nc1ccc([N+](=O)[O-])cc1[N+](=O)[O-])c1c/c(=N\NC(N)=S)c2ccccc2o1
EC50: > 117 µM | IC50: > 117 µM

c1ccc(CN2CCC(Nc3ccccc3)(c3nnnn3Cc3ccccc3)CC2)cc1
EC50: > 200 µM | IC50: 33.1 µM

COC(=O)N/N=C(/Cc1occc(=O)c1O)C(=O)Nc1ccc([N+](=O)[O-])cc1[N+](=O)[O-]
EC50: > 575 µM | IC50: > 575 µM
